# Like-named read-outs stand apart in the source and are kept apart here. Square brackets hold non-standard residues; d marks the D form. Peptide text beside a SMILES is read from it. * marks the point of attachment. Myristoyl = CCCCCCCCCCCCCC(=O)*; Orn = NCCC[C@H](N)C(=O)O
# What was measured:
# C. albicans SC5413 = assay type: cell-based, Candida albicans; conditions: RPMI1640, 37 °C, 48 h; for MIC of antifungal in combination with KKOO: azole MICs unclear (intermediate phenotype); for MIC of antifungal in combination with KKOO-NH2: azole MICs could not be determined (intermediate phenotype)
# Procedure: (§1) All microdilution assays with fungi were carried out in accordance with CLSI protocols from M27 for yeasts and M38 for filamentous fungi, respectively, unless otherwise specified.[64],[65] Briefly, 96-well plates were charged with RPMI1640 media, with operating volume in the first column, 200 μL, and half operating volume, 100 μL, in the remaining wells. Drug stock solution in DMSO was aliquoted into the first well in each row. Half of the volume in the dosed well was serially diluted 2-fold until column 11. Column 11 was used as the negative growth control, and column 12 was used as the positive growth control. ON yeast cultures in YPD were washed twice in DD-H2O, resuspended in PBS, and adjusted to 5000 cfu/mL in RPMI. The 96-well plate was inoculated with 100 μL aliquots of cell suspension per well. Plates were incubated at 37 °C for 2 days.
# To assess drug synergy, the initial media charged to the plate contained the peptide at twice the final operating concentration; the remaining processing steps were identical to the MIC experiment. Upon addition of 100 μL of inoculant, the final operating concentration was achieved. Control MIC plates were prepared alongside drug synergy plates to account for the day-to-day variability in any individual MIC. FIC index is computed using eq 1. All MIC assays and drug synergy assays were completed with two technical replicates per 96-well plate and a minimum of two biological replicates per drug combination. If a difference in MIC between the two technical replicates on the plate were observed, only the higher concentration was reported as the MIC to reduce the possibility of type 1 error (false positive) [drawing 1] 1
# C. glabrata FKS1-S629P = assay: microbe, parasite or virus in culture; assay type: cell-based, Candida glabrata; conditions: 48 h
# Procedure: as §1
# C. glabrata 2001 = assay: microbe, parasite or virus in culture; assay type: cell-based, Candida glabrata
# Procedure: as §1
# C. glabrata FKS2-S663P = assay: microbe, parasite or virus in culture; assay type: cell-based, Candida glabrata; conditions: 48 h
# Procedure: as §1
# Cg FKS1 S629P = assay: Drug synergy (MIC in peptide-supplemented media); assay type: cell-based, Candida glabrata; conditions: RPMI1640, 37 °C, 48 h
# Summary of the method: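 RPMI1640, 2-fold dilution series, 5000 cfu/mL yeast inoculum, 37 °C, 2 d; CLSI M27 (yeasts)/M38 (filamentous). Synergy: peptide added to medium, FIC index calculated. Two technical × ≥2 biological replicates; discordant duplicates → higher MIC.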
# Cn cdc50Δ = assay: microbe, parasite or virus in culture; assay type: cell-based, Cryptococcus neoformans; conditions: for MIC: 37 °C, 48 h
# Procedure: (§2) Previous studies have shown that modifying microbiological media with salts such as CaCl2 can have a drastic effect on the growth of fungi and their responses to antifungals.[19],[35] In the case of CaCl2, the divalent cation, Ca^2+, is involved in fungal cell stress response. To understand how the peptide activity may involve calcium and stress response, the MICs of KKOO, KKOO-NH2, FLC, and CAS were assessed as a function of the calcium concentration in liquid YPD media. It was observed that calcium enrichment completely desensitized the wild-type strain to KKOO and KKOO-NH2, Tables 7 and 8, respectively. Effects of calcium enrichment on the susceptibility of Cryptococcus to CAS similar to literature values were recorded, Supporting Information, Table S7.[35]
# (§3) In order to control for the effects of enriching YPD with a divalent cation, MICs and ROS production were also measured as a function of the MgCl2 supplement at the same millimolar concentrations of cation as in the CaCl2-modified experiments. […] No peptide susceptibility changes were observed against Cn cdc50Δ in magnesium-enriched media, Table S9. ROS production in H99 induced by peptide exposure was inhibited after 30 min of treatment in the magnesium-enriched condition, similar to the levels observed in the calcium-enriched media at 16 μg/mL KKOO-NH2, Figure S1. […] The link between peptide activity and calcium homeostasis may be vital in understanding precisely how the peptide kills fungal cells and requires more research to elucidate.
# as §1
# Cn H99 = assay: microbe, parasite or virus in culture; assay type: cell-based, Cryptococcus neoformans; conditions: for MIC: 37 °C, 48 h
# Procedure: as §2, §3, §1
# Cn apt1Δ = assay: microbe, parasite or virus in culture; assay type: cell-based, Cryptococcus neoformans; conditions: for MIC: 37 °C, 48 h
# Procedure: as §2, §1
# Cn Crm1-oe = assay: microbe, parasite or virus in culture; assay type: cell-based, Cryptococcus neoformans; conditions: YPD + 0 mM Ca2+, 37 °C, 48 h
# Procedure: as §2, §1
# Cn crm1Δ = assay: microbe, parasite or virus in culture; assay type: cell-based, Cryptococcus neoformans; conditions: YPD + 0 mM Ca2+, 37 °C, 48 h
# Procedure: as §2, §1
# [1] = Nakaseomyces glabratus, FKS1S629P
# [2] = Nakaseomyces glabratus, 2001, compound alone, RPMI1640, 37 °C, 48 h, read-out: MIC
# [3] = Nakaseomyces glabratus, FKS2S663P
# [4] = compound alone, RPMI1640, 37 °C
smiles,measurement,setting,value
"C[C@@H]1[C@H](O)[C@@H](C)/C=C/C=C/C=C/C=C/C=C/C=C/C=C/[C@H](O[C@@H]2O[C@H](C)[C@@H](O)[C@H](N)[C@@H]2O)C[C@@H]2O[C@](O)(C[C@@H](O)C[C@@H](O)[C@H](O)CC[C@@H](O)C[C@@H](O)CC(=O)O[C@H]1C)C[C@H](O)[C@H]2C(=O)O [AMB, amphotericin B]",MIC of antifungal in combination with KKOO,C. albicans SC5413; +0 μg/mL KKOO (control),1 µg/mL
same,MIC of antifungal in combination with KKOO-NH2,C. albicans SC5413; +0 μg/mL KKOO-NH2 (control),1 µg/mL
same,MIC of antifungal in combination with KKOO-NH2,C. albicans SC5413; +1 μg/mL KKOO-NH2,0.5 µg/mL
same,MIC of antifungal in combination with KKOO,C. albicans SC5413; +1 μg/mL KKOO,0.5 µg/mL
same,MIC of antifungal in combination with KKOO-NH2,C. albicans SC5413; +2 μg/mL KKOO-NH2,0.25 µg/mL
same,MIC of antifungal in combination with KKOO,C. albicans SC5413; +2 μg/mL KKOO,0.25 µg/mL
same,MIC of antifungal in combination with KKOO-NH2,C. albicans SC5413; +4 μg/mL KKOO-NH2,0.25 µg/mL
same,MIC of antifungal in combination with KKOO,C. albicans SC5413; +4 μg/mL KKOO,0.125 µg/mL
same,MIC of antifungal in combination with KKOO,C. albicans SC5413; +8 μg/mL KKOO,0.125 µg/mL
same,MIC,C. glabrata FKS1-S629P; [1],1 µg/mL
same,MIC,C. glabrata 2001; [2],1 µg/mL
same,MIC,C. glabrata FKS2-S663P; [3],1 µg/mL
same,MIC of antifungal in combination with KKOO,Cg FKS1 S629P; +0 μg/mL KKOO (control),1 µg/mL
same,MIC of antifungal in combination with KKOO-NH2,Cg FKS1 S629P; +0 μg/mL KKOO-NH2 (control),0.5 µg/mL
same,MIC of antifungal in combination with KKOO-NH2,Cg FKS1 S629P; +1 μg/mL KKOO-NH2,0.25 µg/mL
same,MIC of antifungal in combination with KKOO,Cg FKS1 S629P; +1 μg/mL KKOO,0.5 µg/mL
same,MIC of antifungal in combination with KKOO-NH2,Cg FKS1 S629P; +2 μg/mL KKOO-NH2,0.125 µg/mL
same,MIC of antifungal in combination with KKOO,Cg FKS1 S629P; +2 μg/mL KKOO,0.25 µg/mL
same,MIC of antifungal in combination with KKOO-NH2,Cg FKS1 S629P; +4 μg/mL KKOO-NH2,0.062 µg/mL
same,MIC of antifungal in combination with KKOO,Cg FKS1 S629P; +4 μg/mL KKOO,0.25 µg/mL
"CCC(C)n1ncn(-c2ccc(N3CCN(c4ccc(OCC5COC(Cn6cncn6)(c6ccc(Cl)cc6Cl)O5)cc4)CC3)cc2)c1=O (centres unmarked) [ITR, itraconazole]",MIC of antifungal in combination with KKOO,C. albicans SC5413; +0 μg/mL KKOO (control),> 1 µg/mL
same,MIC of antifungal in combination with KKOO-NH2,C. albicans SC5413; +0 μg/mL KKOO-NH2 (control),>1 µg/mL
same,MIC of antifungal in combination with KKOO-NH2,C. albicans SC5413; +1 μg/mL KKOO-NH2,>1 µg/mL
same,MIC of antifungal in combination with KKOO,C. albicans SC5413; +1 μg/mL KKOO,> 1 µg/mL
same,MIC of antifungal in combination with KKOO-NH2,C. albicans SC5413; +2 μg/mL KKOO-NH2,>1 µg/mL
same,MIC of antifungal in combination with KKOO,C. albicans SC5413; +2 μg/mL KKOO,> 1 µg/mL
same,MIC of antifungal in combination with KKOO-NH2,C. albicans SC5413; +4 μg/mL KKOO-NH2,>1 µg/mL
same,MIC of antifungal in combination with KKOO,C. albicans SC5413; +4 μg/mL KKOO,> 1 µg/mL
same,MIC of antifungal in combination with KKOO,C. albicans SC5413; +8 μg/mL KKOO,> 1 µg/mL
same,MIC,C. glabrata FKS1-S629P; [1],0.125 µg/mL
same,MIC,C. glabrata 2001; [2],0.5 µg/mL
same,MIC,C. glabrata FKS2-S663P; [3],0.125 µg/mL
same,MIC of antifungal in combination with KKOO,Cg FKS1 S629P; +0 μg/mL KKOO (control),0.125 µg/mL
same,MIC of antifungal in combination with KKOO-NH2,Cg FKS1 S629P; +0 μg/mL KKOO-NH2 (control),0.062 µg/mL
same,MIC of antifungal in combination with KKOO-NH2,Cg FKS1 S629P; +1 μg/mL KKOO-NH2,0.031 µg/mL
same,MIC of antifungal in combination with KKOO,Cg FKS1 S629P; +1 μg/mL KKOO,0.062 µg/mL
same,MIC of antifungal in combination with KKOO-NH2,Cg FKS1 S629P; +2 μg/mL KKOO-NH2,0.016 µg/mL
same,MIC of antifungal in combination with KKOO,Cg FKS1 S629P; +2 μg/mL KKOO,0.031 µg/mL
same,MIC of antifungal in combination with KKOO-NH2,Cg FKS1 S629P; +4 μg/mL KKOO-NH2,0.008 µg/mL
same,MIC of antifungal in combination with KKOO,Cg FKS1 S629P; +4 μg/mL KKOO,0.016 µg/mL
CCCCCCCCCCCCCC(=O)N[C@@H](Cc1c[nH]c2ccccc12)C(=O)NCC(=O)NCC(=O)N[C@H](C(=O)N[C@@H](CCCN)C(=O)N[C@@H](CCCN)C(=O)N[C@@H](CC(N)=O)C(=O)N[C@@H](Cc1ccc(O)cc1)C(=O)N[C@@H](C)C(N)=O)[C@@H](C)CC [KKOO-NH2] (Myristoyl-WGGI[Orn][Orn]NYA-NH2),MIC,C. glabrata FKS1-S629P; [4],8 µg/mL
same,MIC,"C. glabrata 2001; 2001, 48 h",8 µg/mL
same,MIC (SAR screen peptides),"C. glabrata 2001; Table S1, unit and conditions not given (MICs elsewhere in μg/mL)",8
same,MIC,C. glabrata FKS2-S663P; [4],8 µg/mL
same,MIC,Cn cdc50Δ; YPD + 0 mM Ca2+,2 µg/mL
same,MIC,"Cn cdc50Δ; YPD + 0 mM Mg2+, unit inferred",4 µg/mL
same,increase of MIC (largest deviation),Cn cdc50Δ; YPD +0 to +5 mM CaCl2,4 fold
same,MIC,Cn cdc50Δ; YPD + 2.5 mM Ca2+,4 µg/mL
same,MIC,"Cn cdc50Δ; YPD + 2.5 mM Mg2+, unit inferred",4 µg/mL
same,MIC,Cn cdc50Δ; YPD + 5 mM Ca2+,8 µg/mL
same,MIC,"Cn cdc50Δ; YPD + 5 mM Mg2+, unit inferred",4 µg/mL
same,MIC,Cn cdc50Δ; YPD + 10 mM Ca2+,8 µg/mL
same,MIC,"Cn cdc50Δ; YPD + 10 mM Mg2+, unit inferred",4 µg/mL
same,MIC,Cn cdc50Δ; YPD + 20 mM Ca2+,4 µg/mL
same,MIC,"Cn cdc50Δ; YPD + 20 mM Mg2+, unit inferred",4 µg/mL
same,MIC,Cn H99; YPD + 0 mM Ca2+,8 µg/mL
same,MIC,Cn H99; YPD + 0 mM Mg2+,8 µg/mL
same,increase of MIC,Cn H99; YPD +0 to +2.5 mM CaCl2,16 fold
same,increase of MIC,Cn H99; YPD +0 to +20 mM MgCl2,4 fold
same,MIC,Cn H99; YPD + 2.5 mM Ca2+,128 µg/mL
same,MIC,Cn H99; YPD + 2.5 mM Mg2+,8 µg/mL
same,MIC,Cn H99; YPD + 5 mM Ca2+,>128 µg/mL
same,MIC,Cn H99; YPD + 5 mM Mg2+,16 µg/mL
same,MIC,Cn H99; YPD + 10 mM Ca2+,>128 µg/mL
same,MIC,Cn H99; YPD + 10 mM Mg2+,16 µg/mL
same,MIC,Cn H99; YPD + 20 mM Ca2+,>128 µg/mL
same,MIC,Cn H99; YPD + 20 mM Mg2+,32 µg/mL
same,MIC,Cn apt1Δ; YPD + 0 mM Ca2+,4 µg/mL
same,increase of MIC,Cn apt1Δ; YPD +0 to +20 mM CaCl2,32 fold
same,MIC,Cn apt1Δ; YPD + 2.5 mM Ca2+,16 µg/mL
same,MIC,Cn apt1Δ; YPD + 5 mM Ca2+,64 µg/mL
same,MIC,Cn apt1Δ; YPD + 10 mM Ca2+,64 µg/mL
same,MIC,Cn Crm1-oe,4 µg/mL
same,MIC,Cn crm1Δ,4 µg/mL
